Data: patent US10913742B2, “Oxadiazolones as transient receptor potential channel inhibitors” (Genentech, Inc., priority 2017, dated 2021)
Like-named read-outs stand apart in the source and are kept apart here.

Key:
[1] = Human liver microsome clearance (HLM-CLhep); type: in vitro ADME; settings: 0.5 mg/ml protein, 1 mM NADPH, 1 μM compound, 37° C.
Experimental: (§1) Certain pharmacokinetic attributes were evaluated for some compounds of the present disclosure. […] The compounds of the present disclosure were discovered to provide for an unexpected combination of high potency as measured by hTRPA1 IC50 and high stability as measured by RLM-CLhep, HLM-CLhep and Rat IV PK.
(§2) The reactions were incubated at 37° C. for 0, 20, 40 and 60 minutes and at each allotted time point an aliquot of the reaction mixture was added to ice-cold acetonitrile with internal standard. The samples were subsequently centrifuged at 3000×g for 10 minutes and supernatant was diluted in water before LC-MS/MS analysis.

[2] = target: human TRPA1 (Homo sapiens (Human), UniProt O75762); experiment: hTRPA1 CHO Ca2+ FLIPR assay (block of cinnamaldehyde induced calcium influx); type: cell-based
Sequence of human TRPA1 (O75762 whole entry): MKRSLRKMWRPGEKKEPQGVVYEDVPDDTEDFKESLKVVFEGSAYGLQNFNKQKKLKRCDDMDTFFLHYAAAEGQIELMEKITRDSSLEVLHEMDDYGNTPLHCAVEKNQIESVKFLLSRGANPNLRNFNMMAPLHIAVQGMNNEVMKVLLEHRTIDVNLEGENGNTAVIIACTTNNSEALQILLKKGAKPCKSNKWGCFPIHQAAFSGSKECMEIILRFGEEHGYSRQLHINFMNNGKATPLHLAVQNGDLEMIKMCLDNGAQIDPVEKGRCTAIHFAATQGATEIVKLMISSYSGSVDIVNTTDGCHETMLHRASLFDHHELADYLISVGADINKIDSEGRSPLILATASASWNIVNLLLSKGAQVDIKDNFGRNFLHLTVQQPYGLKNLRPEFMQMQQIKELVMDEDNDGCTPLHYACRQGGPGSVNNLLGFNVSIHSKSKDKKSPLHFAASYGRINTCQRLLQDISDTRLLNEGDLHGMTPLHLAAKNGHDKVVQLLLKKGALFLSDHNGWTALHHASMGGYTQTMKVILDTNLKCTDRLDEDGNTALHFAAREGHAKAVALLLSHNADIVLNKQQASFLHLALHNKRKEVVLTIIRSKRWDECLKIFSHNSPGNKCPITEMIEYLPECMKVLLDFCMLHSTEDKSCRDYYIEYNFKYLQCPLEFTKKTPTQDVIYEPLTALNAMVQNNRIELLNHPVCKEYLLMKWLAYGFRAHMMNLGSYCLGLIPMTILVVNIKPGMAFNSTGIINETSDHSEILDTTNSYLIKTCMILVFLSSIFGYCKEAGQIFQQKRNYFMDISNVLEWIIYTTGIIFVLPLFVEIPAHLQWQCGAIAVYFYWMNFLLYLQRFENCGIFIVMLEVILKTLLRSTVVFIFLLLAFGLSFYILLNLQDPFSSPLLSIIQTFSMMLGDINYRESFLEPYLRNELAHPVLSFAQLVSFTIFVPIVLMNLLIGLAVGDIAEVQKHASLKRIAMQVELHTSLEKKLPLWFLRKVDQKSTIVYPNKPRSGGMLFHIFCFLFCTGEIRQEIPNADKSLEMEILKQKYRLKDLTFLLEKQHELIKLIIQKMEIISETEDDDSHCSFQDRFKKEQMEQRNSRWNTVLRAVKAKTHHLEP
Outline: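 CHO cells expressing TRPA1 loaded with calcium dye (1 h at 37° C, then 15 min at room temperature) in HBSS/20 mM HEPES pH 7.4/0.02% BSA. Compounds preincubated 20 min at room temperature before cinnamaldehyde addition, with FLIPR Ca2+ readout. IC50 from Hill fit, n fixed at 1.5.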

[3] = Rat liver microsome clearance (RLM-CLhep); type: in vitro ADME; settings: 0.5 mg/ml protein, 1 mM NADPH, 1 μM compound, 37° C.
Experimental: as §1, §2

[4] = Rat IV PK (hepatic clearance); type: in vivo; settings: rat IV dose of 1 mg/kg
Experimental: as §1

[5] = repeated from Table 1, read-out: hTRPA1 IC50
[6] = CHO cells expressing TRPA1, 75 uM cinnamaldehyde, Hill coefficient fixed to 1.5, read-out: hTRPA1 (hTRPA1 CHO Ca2+ MAX EVO (IC50))

| IC50 [2, 6] [nM] | Compound | further results |
| --- | --- | --- |
|  | Cn1cnc2ncn(Cc3nn(CCc4ccc(Cl)cc4)c(=O)o3)c(=O)c21 [Example Compound 1, 3-[2-(4-chlorophenyl)ethyl]-5-[(7-methyl-6-oxo-purin-1-yl)methyl]-1,3,4-oxadiazol-2-one] | HLM-CLhep (human liver microsome clearance) [1]: 11 mL/min/kg; IC50 [2, 5]: 95 nM; RLM-CLhep (rat liver microsome clearance) [3]: 34 mL/min/kg; Rat IV PK (hepatic clearance) [4]: 48 mL/min/kg |
|  | Cn1cnc2ncn(Cc3nn(C[C@@H](F)c4ccc(Cl)cc4)c(=O)o3)c(=O)c21 [Example Compound 14, (S)-3-(2-(4-chlorophenyl)-2-fluoroethyl)-5-((7-methyl-6-oxo-6H-purin-1 (7H)-yl)methyl)-1,3,4-oxadiazol-2(3H)-one] | HLM-CLhep (human liver microsome clearance) [1]: 6 mL/min/kg; IC50 [2, 5]: 34 nM; RLM-CLhep (rat liver microsome clearance) [3]: 28 mL/min/kg; Rat IV PK (hepatic clearance) [4]: 17 mL/min/kg |
|  | Cn1cnc2ncn(Cc3nn([C@H]4C[C@H](c5ccc(Cl)cc5)C4)c(=O)o3)c(=O)c21 [Example Compound 50, 3-[3-(4-chlorophenyl)cyclobutyl]-5-[(7-methyl-6-oxo-purin-1-yl)methyl]-1,3,4-oxadiazol-2-one] | HLM-CLhep (human liver microsome clearance) [1]: 5 mL/min/kg; RLM-CLhep (rat liver microsome clearance) [3]: 12 mL/min/kg; Rat IV PK (hepatic clearance) [4]: 10 mL/min/kg |
| 4.84 | Cc1cc(C#N)nc2ncn(Cc3nn([C@H]4C[C@H](c5ccc(Cl)cc5)C4)c(=O)o3)c(=O)c12 [compound 93, trans-3-[[4-[3-(4-chlorophenyl)cyclobutyl]-5-oxo-1,3,4-oxadiazol-2-yl]methyl]-5-methyl-4-oxo-pyrido[2,3-d]pyrimidine-7-carbonitrile] |  |
| 16.8 | O=c1c2cccnc2ncn1Cc1nn([C@H]2C[C@](F)(c3ccc(Cl)cc3)C2)c(=O)o1 [compound 94, trans-3-[3-(4-chlorophenyl)-3-fluoro-cyclobutyl]-5-[(4-oxopyrido[2,3-d]pyrimidin-3-yl)methyl]-1,3,4-oxadiazol-2-one] |  |
| 18 | Cc1ccnc2ncn(Cc3nn([C@H]4C[C@](F)(c5ccc(F)cc5)C4)c(=O)o3)c(=O)c12 [compound 96, 3-[3-fluoro-3-(4-fluorophenyl)cyclobutyl]-5-[(5-methyl-4-oxo-pyrido[2,3-d]pyrimidin-3-yl)methyl]-1,3,4-oxadiazol-2-one] |  |
| 80.2 | Cn1cnc2ncn(Cc3nn([C@H]4C[C@](F)(c5ccc(F)cc5)C4)c(=O)o3)c(=O)c21 [compound 97, 3-[3-fluoro-3-(4-fluorophenyl)cyclobutyl]-5-[(7-methyl-6-oxo-purin-1-yl)methyl]-1,3,4-oxadiazol-2-one] |  |
| 16.2 | O=c1c2cccnc2ncn1Cc1nn([C@H]2C[C@H](c3ccc(Cl)cc3)C2)c(=O)o1 [compound 98, trans-3-[3-(4-chlorophenyl)cyclobutyl]-5-[(4-oxopyrido[2,3-d]pyrimidin-3-yl)methyl]-1,3,4-oxadiazol-2-one] |  |
| 57.3 | Cc1ccnc2ncn(Cc3nn([C@H]4C[C@@](F)(c5ccc(C(F)(F)F)cc5)C4)c(=O)o3)c(=O)c12 [compound 99, 3-[3-fluoro-3-[4-(trifluoromethyl)phenyl]cyclobutyl]-5-[(5-methyl-4-oxo-pyrido[2,3-d]pyrimidin-3 yl)methyl]-1,3,4-oxadiazol-2-one] |  |
| 9.59 | Cn1cnc2ncn(Cc3nn([C@@H]4CC[C@@H](c5ccc(Cl)cc5)C4)c(=O)o3)c(=O)c21 [compound 100, 5-[(7-methyl-6-oxo-purin-1-yl)methyl]-3-[(1R,3R)-3-(4-chlorophenyl)cyclopentyl]-1,3,4-oxadiazol-2-one] |  |
| 26 | Cn1cnc2ncn(Cc3nn([C@H]4C[C@H](c5ccc(OC(F)F)cc5)C4)c(=O)o3)c(=O)c21 [compound 103, 3-[3-[(trans)-4-(difluoromethoxy)phenyl]cyclobutyl]-5-[(7-methyl-6-oxo-purin-1-yl)methyl]-1,3,4-oxadiazol-2-one] |  |
| 29.6 | Cc1ccnc2ncn(Cc3nn([C@H]4C[C@](F)(c5ccc(Cl)cc5)C4)c(=O)o3)c(=O)c12 [compound 104, 3-[3-(4-chlorophenyl)-3-fluoro-cyclobutyl]-5-[(5-methyl-4-oxo-pyrido[2,3-d]pyrimidin-3-yl)methyl]-1,3,4-oxadiazol-2-one] |  |
| 64 | Cn1cnc2ncn(Cc3nn([C@H]4C[C@](F)(c5ccc(Cl)cc5)C4)c(=O)o3)c(=O)c21 [compound 105, trans-3-[3-(4-chlorophenyl)-3-fluoro-cyclobutyl]-5-[(7-methyl-6-oxo-purin-1-yl)methyl]-1,3,4-oxadiazol-2-one] |  |
| 29.9 | Cn1cnc2ncn(Cc3nn([C@H]4C[C@H](c5ccc(Cl)c(F)c5)C4)c(=O)o3)c(=O)c21 [compound 106, 3-[3-(4-chloro-3-fluoro-phenyl)cyclobutyl]-5-[(7-methyl-6-oxo-purin-1-yl)methyl]-1,3,4-oxadiazol-2-one] |  |
| 6.3 | Cc1ccnc2ncn(Cc3nn([C@H]4C[C@H](c5ccc(Cl)cc5)C4)c(=O)o3)c(=O)c12 [compound 107, 3-[3-(4-chlorophenyl)cyclobutyl]-5-[(5-methyl-4-oxo-pyrido[2,3-d]pyrimidin-3-yl)methyl]-1,3,4-oxadiazol-2-one] |  |
| 90 | Cn1cnc2ncn(Cc3nn([C@H]4C[C@H](c5ccc(C(F)(F)F)cc5)C4)c(=O)o3)c(=O)c21 [compound 111, 5-[(7-methyl-6-oxo-purin-1-yl)methyl]-3-[3-[4-(trifluoromethyl)phenyl]cyclobutyl]-1,3,4-oxadiazol-2-one] |  |
| 64.8 | Cn1cnc2ncn(Cc3nn([C@H]4C[C@H](c5ccc(F)cc5)C4)c(=O)o3)c(=O)c21 [compound 112, 3-[3-(4-fluorophenyl)cyclobutyl]-5-[(7-methyl-6-oxo-purin-1-yl)methyl]-1,3,4-oxadiazol-2-one] |  |
| 17.8 | Cn1cnc2ncn(Cc3nn([C@H]4C[C@H](c5ccc6ccccc6c5)C4)c(=O)o3)c(=O)c21 [compound 113, 5-[(7-methyl-6-oxo-purin-1-yl)methyl]-3-[3-(2-naphthyl)cyclobutyl]-1,3,4-oxadiazol-2-one] |  |
